Laboratory results taken from US9090593B2, “Bicyclic compounds as Pim inhibitors” (AMGEN INC., priority 2010, dated 2015).
pIC50: −log10 of the molar value. Like-named read-outs stand apart in the source and are kept apart here.

Key:
[1] = target: T1, full length recombinant Pim-3 protein (Homo sapiens, UniProt Q86V86); experiment: Pim-3 enzyme assay (HTRF, phosphorylation of biotinylated-BAD (S112) peptide); format: biochemical; conditions: read-out: Pim3 IC50
T1 construct: by full length recombinant Pim-1, Pim-2, or Pim-3 protein; purchased Millipore (UK)
Text: Pim-3 was purchased from Millipore (UK).
The phosphorylation of biotinylated-BAD (S112) peptide by full length recombinant Pim-1, Pim-2, or Pim-3 protein was detected with streptavidin:Allophycocyanin (APC) conjugate and a europium (Eu) labeled antibody directed against phosphorylated-BAD (S112). […] The fluorescence is directly proportional to the amount of phosphorylated BAD peptide present in the reaction.
A reference compound was included on each assay plate in order to validate that plate; on one plate of every assay run, two additional reference compounds were included.
The final buffer conditions were as follows: 60 mM Hepes, pH 7.0, 0.05% BSA, 2 mM DTT. […] The reaction was stopped by the addition of 3 mM EDTA, and fluorescence was measured by an HTRF® Rubystar microplate reader. For each plate, percent of control (POC) values were calculated for each well. Values for the IC50 IP were estimated using a standard 4-parameter logistic model.

[2] = target: T2, full length recombinant Pim-1 protein (Homo sapiens, UniProt P11309); experiment: Pim-1 enzyme assay (HTRF, phosphorylation of biotinylated-BAD (S112) peptide); format: biochemical; conditions: read-out: Pim_1_IC50
T2 construct: by full length recombinant Pim-1, Pim-2, or Pim-3 protein; hexahistidine tag followed by a thrombin cleavage site (N); made in house; host or cells: Sf9 (baculovirus) or E. coli (pET28)
T2 sequence (P11309 whole entry): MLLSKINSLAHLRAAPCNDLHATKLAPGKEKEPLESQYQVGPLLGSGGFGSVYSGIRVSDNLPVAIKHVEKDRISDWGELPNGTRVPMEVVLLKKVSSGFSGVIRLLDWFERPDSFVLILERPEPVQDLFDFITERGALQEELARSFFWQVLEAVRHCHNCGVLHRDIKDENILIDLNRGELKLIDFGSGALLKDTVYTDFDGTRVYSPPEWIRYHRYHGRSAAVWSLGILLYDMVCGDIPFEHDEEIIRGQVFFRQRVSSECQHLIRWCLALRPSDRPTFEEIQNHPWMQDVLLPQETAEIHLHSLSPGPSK
Summary of the method: (§1)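 HTRF readout (europium anti-pBAD S112 antibody, streptavidin-APC) of biotin-BAD peptide phosphorylation by recombinant full-length Pim-1 or Pim-2, buffer 60 mM Hepes pH 7.0, 2 mM DTT, 0.05% BSA. Enzymes were His6-tagged, from baculovirus/Sf9 or E. coli.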

[3] = target: T3, full length recombinant Pim-2 protein (Homo sapiens, UniProt Q9P1W9); experiment: Pim-2 enzyme assay (HTRF, phosphorylation of biotinylated-BAD (S112) peptide); format: biochemical; conditions: read-out: Pim2_IC50
T3 construct: by full length recombinant Pim-1, Pim-2, or Pim-3 protein; hexahistidine tag followed by a thrombin cleavage site (N); made in house; host or cells: Sf9 (baculovirus) or E. coli (pET28)
T3 sequence (Q9P1W9 whole entry): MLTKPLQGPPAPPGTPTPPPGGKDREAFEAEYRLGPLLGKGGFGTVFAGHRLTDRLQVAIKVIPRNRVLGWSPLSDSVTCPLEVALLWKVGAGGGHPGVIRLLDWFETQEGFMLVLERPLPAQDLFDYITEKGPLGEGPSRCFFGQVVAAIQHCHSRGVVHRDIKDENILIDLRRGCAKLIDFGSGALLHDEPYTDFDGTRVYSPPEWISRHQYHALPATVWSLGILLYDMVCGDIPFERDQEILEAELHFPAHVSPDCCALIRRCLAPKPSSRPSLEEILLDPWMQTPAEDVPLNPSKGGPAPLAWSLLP
Summary of the method: as §1

[4] = target: T4, Pim-2 stably transfected into the U2OS human osteogenic sarcoma line (Homo sapiens, UniProt Q9P1W9); experiment: Pim cell assay, phospho-BAD normalized against total BAD, U2OS stably transfected with Pim-2; format: cell-based; conditions: U2OS stably transfected with Pim-2; phospho-BAD normalized against total BAD; 29 min incubation; read-out: Pim2_Cell_IC50_
T4 construct: expressed in transfected cells; host or cells: U2OS human osteogenic sarcoma line
T4 sequence (Q9P1W9 whole entry): as above
Summary of the method: (§2)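 Read-out is phospho-BAD relative to total BAD, by MSD electrochemiluminescence on lysates, expressed as % phosphoprotein = (2×phospho)/(phospho+total)×100. Engineered U2OS lines carrying stably transfected Pim-1 or Pim-2 received 10-point compound dilutions at 0.3% final DMSO after overnight culture at 37 °C; DMSO-only wells served as high control.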

[5] = target: T5, Pim-1 stably transfected into the U2OS human osteogenic sarcoma line (Homo sapiens, UniProt P11309); experiment: Pim cell assay, phospho-BAD normalized against total BAD, U2OS stably transfected with Pim-1; format: cell-based; conditions: U2OS stably transfected with Pim-1; phospho-BAD normalized against total BAD; 29 min incubation; read-out: Pim1_Cell_IC50_
T5 construct: expressed in transfected cells; host or cells: U2OS human osteogenic sarcoma line
T5 sequence (P11309 whole entry): as the sequence (P11309 whole entry) above
Summary of the method: as §2

| Compound | pIC50 [4] | pIC50 [2] | pIC50 [3] | pIC50 [5] | pIC50 [1] | pIC50 ([2]; enzyme assay, Pim-1) | pIC50 ([3]; enzyme assay, Pim-2) |
| --- | --- | --- | --- | --- | --- | --- | --- |
| 3-(6-(4-amino-1-piperidinyl)-2-pyrazinyl)-N-benzyl-1H-indole-5-carboxamide [Example 241] |  |  |  |  | 6.27 | 6.42 | 5.61 |
| 3-(6-(4-amino-1-piperidinyl)-2-pyrazinyl)-N-phenyl-1H-indole-5-carboxamide [Example 240] |  |  |  |  | 6.14 | 6.60 | < 5.52 |
| Fc1cccc(F)c1-c1ccc2[nH]nc(-c3cncc(O[C@@H]4CNCC[C@H]4F)n3)c2c1 (single isomer, unassigned) [Example 18, 5-(2,6-difluorophenyl)-3-(6-(trans-4-fluoropiperidin-3-yloxy)pyrazin-2-yl)-1H-indazole] |  |  |  |  | 7.47 | 7.12 | 6.58 |
| c1cc2[nH]nc(-c3cncc(O[C@H]4CCNCC45CC5)n3)c2cc1-c1cncc(C2CC2)n1 [Example 374, 3-(6-((8S)-5-azaspiro[2.5]oct-8-yloxy)-2-pyrazinyl)-5-(6-cyclopropyl-2-pyrazinyl)-1H-indazole] | 5.09 | 9.00 | 7.77 | 6.51 |  |  |  |
| COc1cncc(-c2n[nH]c3ccc(-c4cncc(C5CC5)n4)cc23)n1 [Example 379] | < 4.50 | 8.70 | 7.80 | 6.18 |  |  |  |
| CC(C)Oc1cncc(-c2n[nH]c3ccc(-c4cncc(C5CC5)n4)cc23)n1 [Example 381] | < 4.50 | 8.40 | 7.43 | 6.11 |  |  |  |
| COc1cncc(-c2n[nH]c3ccc(-c4cncc(NC5CC5)n4)cc23)n1 [Example 383, N-cyclopropyl-6-(3-(6-methoxy-2-pyrazinyl)-1H-indazol-5-yl)-2-pyrazinamine] | 4.66 | 9.00 | 8.00 | 7.36 |  |  |  |
| FCCOc1cncc(-c2n[nH]c3ccc(-c4cncc(C5CC5)n4)cc23)n1 [Example 384] | < 4.50 | 8.40 | 7.57 | 6.68 |  |  |  |
| Nc1cncc(-c2ccc3[nH]nc(-c4cncc(OCCF)n4)c3c2)n1 [Example 386, 6-(3-(6-(2-fluoroethoxy)-2-pyrazinyl)-1H-indazol-5-yl)-2-pyrazinamine] | < 4.50 | 8.22 | 7.96 | 7.21 |  |  |  |
| c1cc2[nH]nc(-c3cncc(NC4CC4)n3)c2cc1-c1cncc(C2CC2)n1 [Example 391, N-cyclopropyl-6-(5-(6-cyclopropyl-2-pyrazinyl)-1H-indazol-3-yl)-2-pyrazinamine] | < 5.00 | 8.70 | 7.92 | 6.94 |  |  |  |
| CC(C)(O)CNc1cncc(-c2n[nH]c3ccc(-c4cncc(C5CC5)n4)cc23)n1 [Example 392] | < 5.00 | 7.89 | 7.18 | 6.67 |  |  |  |
| c1cc2[nH]nc(-c3cncc(O[C@H]4CNCCC45CC5)n3)c2cc1N1CCOCC1 [Example 400] | 5.06 | 7.77 | 7.60 | 5.95 |  |  |  |
| Cc1ccccc1-c1ccc2[nH]nc(-c3cncc(O[C@H]4CNCCC45CC5)n3)c2c1 [Example 404] | < 4.80 | 8.05 | 7.72 | 5.59 |  |  |  |
| FC(F)(F)c1ccccc1-c1ccc2[nH]nc(-c3cncc(O[C@H]4CNCCC45CC5)n3)c2c1 [Example 407] | < 4.80 | 7.70 | 7.29 | 5.68 |  |  |  |
| Brc1ccc2[nH]nc(-c3cncc(O[C@@H]4CNCCC45CC5)n3)c2c1 [Example 421] | 4.50 | 7.72 | 7.30 | 5.94 |  |  |  |
| CC(C)OC(=O)c1ccc2[nH]nc(-c3cncc(N4CCC(N)CC4)n3)c2c1 [Example 470] | 5.06 | 8.70 | 8.10 | 6.69 |  |  |  |
| COC(=O)c1ccc2[nH]nc(-c3cncc(N[C@@H]4CCCNC4)n3)c2c1 [Example 473] | 5.02 | 8.40 | 7.36 | 6.66 |  |  |  |
| CC(C)OC(=O)c1ccc2[nH]nc(-c3cncc(N[C@@H]4CCCNC4)n3)c2c1 [Example 474, 1-methylethyl 3-(6-((3R)-3-piperidinylamino)-2-pyrazinyl)-1H-indazole-5-carboxylate] | 4.84 | 8.70 | 7.28 | 6.97 |  |  |  |
| COC(=O)c1ccc2[nH]nc(-c3cncc(O[C@@H]4CCCNC4)n3)c2c1 [Example 476] | 4.50 | 7.74 | 6.84 | 6.23 |  |  |  |
| CC(C)OC(=O)c1ccc2[nH]nc(-c3cncc(O[C@@H]4CCCNC4)n3)c2c1 [Example 477] | 4.69 | 8.10 | 6.90 | 6.46 |  |  |  |

More lines, main results first:

| pIC50 [4] | pIC50 [2] | pIC50 [3] | pIC50 [5] | Compound | pIC50 [1] | pIC50 ([2]; enzyme assay, Pim-1) | pIC50 ([3]; enzyme assay, Pim-2) |
| --- | --- | --- | --- | --- | --- | --- | --- |
| < 4.50 | 9.00 | 8.40 | 5.92 | NC1CCN(c2cc(O)nc(-c3n[nH]c4ccc(-c5c(F)cccc5F)cc34)n2)CC1 [Example 482] |  |  |  |
| < 4.50 | 8.40 | 7.49 | 6.66 | Oc1cc(-c2c[nH]c3ccc(-c4c(F)cccc4F)cc23)nc(N2CCOCC2)n1 [Example 483] |  |  |  |
| < 4.80 | 7.89 | 7.27 | 6.28 | COC(=O)c1ccc2[nH]nc(-c3ccnc(N[C@@H]4CCCNC4)n3)c2c1 [Example 490] |  |  |  |
| < 4.50 | 7.82 | 7.48 | 5.43 | COc1cc(-c2n[nH]c3ccc(-c4c(F)cccc4F)cc23)nc(N2CCC(N)CC2)n1 [Example 506] |  |  |  |
| < 4.50 | 8.52 | 7.19 | < 4.50 | NC1CCN(c2cncc(-c3n[nH]c4ccc(-c5nccc6[nH]ccc56)cc34)n2)CC1 [Example 507] |  |  |  |
| < 4.50 | 7.77 | 7.11 | 6.00 | CC(C)Oc1cncc(-c2ccc3[nH]cc(-c4nnc(N5CCC[C@H](N)C5)o4)c3c2)n1 [Example 510] |  |  |  |
| < 4.50 | 8.52 | 8.15 | 4.92 | Oc1cc(N[C@@H]2CCCNC2)nc(-c2c[nH]c3ccc(-c4c(F)cccc4F)cc23)n1 [Example 515] |  |  |  |
| < 4.50 | 8.22 | 6.85 | 6.06 | NC1CCN(c2ccnc(-c3n[nH]c4ccc(-c5c(F)cccc5F)cc34)n2)CC1 [Example 516] |  |  |  |
| < 4.50 | 8.70 | 7.19 | 6.75 | NC1CCN(c2cncc(-c3c[nH]c4ccc(-c5cncc(C6CC6)n5)cc34)n2)CC1 [Example 517] |  |  |  |
| < 4.50 | 7.60 | 7.01 | 5.16 | CC(C)Oc1cncc(-c2ccc3[nH]cc(-c4nnc(N[C@@H]5CCCNC5)o4)c3c2)n1 [Example 518] |  |  |  |
| < 4.50 | 9.00 | 6.89 | 6.47 | NC1CCN(c2cncc(-c3c[nH]c4ccc(-c5cncc(NC6CC6)n5)cc34)n2)CC1 [Example 519] |  |  |  |
| < 4.50 | 8.30 | 7.74 | 6.00 | CC(C)Nc1nc(-c2n[nH]c3ccc(-c4c(F)cccc4F)cc23)cc(=O)[nH]1 [Example 524] |  |  |  |
| < 4.80 | 7.89 | 7.44 | 6.11 | CC(C)Oc1nc(-c2n[nH]c3ccc(-c4c(F)cccc4F)cc23)cc(=O)[nH]1 [Example 528] |  |  |  |
| 5.42 | 8.70 | 8.10 | 6.81 | COC(=O)c1ccc2[nH]nc(-c3cncc(N4CCC(N)CC4)n3)c2c1 [Example 558, methyl 3-(6-(4-amino-1-piperidinyl)-2-pyrazinyl)-1H-indazole-5-carboxylate] |  |  |  |
| 4.87 | 9.00 | 8.70 | 5.75 | NC1CCN(c2nc(O)cc(-c3n[nH]c4ccc(-c5c(F)cccc5F)cc34)n2)CC1 [Example 565] |  |  |  |
| < 4.50 | 8.40 | 7.64 | 5.25 | NC1CCN(c2cc(O)nc(-c3c[nH]c4ccc(-c5c(F)cccc5F)cc34)n2)CC1 [Example 566] |  |  |  |
